The test system of data set [1] is H460 (Lung, Non-Small Cell). Description: 3H-thymidine incorporation cytotoxicity assay, H460. In kind it is cell-based, human. Conditions: H460, 42 h. On the procedure:
(§1) In vitro efficacy screening has been performed using GI147211 and liposomal formulations of GI147211. […] Standard tumor cell-based cytototoxicity assays assessing ^3H-thymidine incorporation were performed.
(§2) Tumor cells were seeded into 96-well tissue culture plates (1×10^4 cells/well)≡4 h prior to experimentation. […] Positive and negative (Tris treated) control groups were included on each assay plate. Tumor cells were then labeled with 0.25 μCi of [methyl-^3H] thymidine and incubated for 42 h under tissue culture conditions (37° C., 5% CO2, 100% relative humidity), except for C6, U251, A673 and B16-F1 cells which were incubated for 24 h. Cells were then lysed, harvested onto glass-fiber filters and unincorporated [methyl-^3H] thymidine removed by filter washing. Filters were processed for scintillation counting and cpm-^3H/well determined. […] Data are presented from multiple sets of experimentation, involving multiple liposomal formulations of GI147211.

Data set [2] relates to HT-29 (Colon). The data set is described as follows: 3H-thymidine incorporation cytotoxicity assay, HT-29. In kind it is cell-based, human. The settings on record: HT-29, 42 h. On the procedure:
as §1, §2

Data set [3] deals with KB (oralpharyngial carcinoma). The data set is described as follows: 3H-thymidine incorporation cytotoxicity assay, KB. Conditions: 42 h. In kind it is cell-based, human. On the procedure: as §1, §2
A general note: Uptake of a labelled nucleoside into DNA is a usual measure of proliferation.

Data set [4] relates to LS-513 (Cecum). The data set is described as follows: 3H-thymidine incorporation cytotoxicity assay, LS-513. In kind it is cell-based, human. The settings on record: LS-513, 42 h. As to the method: as §1, §2
The test system of data set [5] is MDA-MB-468 (Breast). Description: 3H-thymidine incorporation cytotoxicity assay, MDA-MB-468. In kind it is cell-based, human. Conditions: MDA-MB-468, 42 h. As to the method: as §1, §2
For data set [6], the system named is KBV (oralpharyngial carcinoma, vincristine resistant phenotype). The data set is described as follows: 3H-thymidine incorporation cytotoxicity assay, KBV. In kind it is cell-based, human. The settings on record: 42 h. On the procedure:
as §1, §2

Data set [7] relates to B16-F1 (Melanoma, murine). Description: 3H-thymidine incorporation cytotoxicity assay, B16-F1. In kind it is cell-based. The settings on record: B16-F1, 24 h. On the procedure:
as §1, §2

The subject of data set [8] is MCF-7 (Breast). The data set is described as follows: 3H-thymidine incorporation cytotoxicity assay, MCF-7. In kind it is cell-based, human. Conditions: MCF-7, 42 h. On the procedure: as §1, §2
Data set [9] relates to BT-20 (Breast). The data set is described as follows: 3H-thymidine incorporation cytotoxicity assay, BT-20. In kind it is cell-based, human. The settings on record: BT-20, 42 h. On the procedure: as §1, §2
Data set [10] has as its system DU-145 (prostate carcinoma). Description: 3H-thymidine incorporation cytotoxicity assay, DU-145. In kind it is cell-based, human. The settings on record: DU-145, 42 h. As to the method:
as §1, §2

Data set [11] relates to LOX (melanoma). Description: 3H-thymidine incorporation cytotoxicity assay, LOX. In kind it is cell-based, human. The settings on record: 42 h. As to the method:
as §1, §2

In data set [12] the test system is ES-2 (ovarian carcinoma). The data set is described as follows: 3H-thymidine incorporation cytotoxicity assay, ES-2. In kind it is cell-based, human. Conditions: ES-2, 42 h. On the procedure:
as §1, §2

Data set [13] relates to U251 (Glioblastoma). Description: 3H-thymidine incorporation cytotoxicity assay, U251. In kind it is cell-based, human. The settings on record: U251, 24 h. On the procedure:
as §1, §2

In data set [14] the test system is U937 (Lymphoma). The data set is described as follows: 3H-thymidine incorporation cytotoxicity assay, U937. In kind it is cell-based, human. The settings on record: U937, 42 h. As to the method:
as §1, §2

For data set [15], the system named is ES2 Tumor Xenograft. The data set is described as follows: Repeat dose efficacy at equal toxic doses, ES2 xenograft. The settings on record: ES2, 16 mg/kg, days 1, 8 and 15. As to the method: In all the studies performed, subcutaneous tumors implanted on the anterior flank of nude mice were allowed to grow to an established size of 200+/−50 mm^3 prior to dosing drugs.
Drugs were dosed on days 1,8 and 15.

The subject of data set [16] is A673 (Rhabdomyosarcoma). The data set is described as follows: 3H-thymidine incorporation cytotoxicity assay, A673. In kind it is cell-based, human. The settings on record: A673, 24 h. On the procedure: as §1, §2
For data set [17], the system named is SKOV-3 (ovarian carcinoma). The data set is described as follows: 3H-thymidine incorporation cytotoxicity assay, SKOV-3. In kind it is cell-based, human. Conditions: SKOV-3, 42 h. On the procedure: as §1, §2
Data set [18] deals with U87-MG (Astrocytoma). The data set is described as follows: 3H-thymidine incorporation cytotoxicity assay, U87-MG. In kind it is cell-based, human. Conditions: 42 h. On the procedure: as §1, §2

As for `CC[C@@]1(O)C(=O)OCc2c1cc1n(c2=O)Cc2cc3c(CN(C)C)c(O)ccc3nc2-1` [Topotecan], the “Median IC50” value in data set [1] stood at 0.0209 µg/mL; in data set [2] it was 0.00415 µg/mL; in data set [3], 0.0336 µg/mL; in data set [4], 0.016 µg/mL; in data set [5], 0.0473 µg/mL; in data set [6], 0.611 µg/mL. Also, the “Median IC50” value in [7] is 0.393 µg/mL; in data set [8], 0.23 µg/mL; in data set [9] it was 0.0035 µg/mL; in data set [10] it was 0.0135 µg/mL; in data set [11], 0.00492 µg/mL; in data set [12] it was 0.00389 µg/mL. In addition, the “Median IC50” value in data set [13] is 0.0131 µg/mL; in data set [14], 0.00903 µg/mL; in data set [16], 0.00604 µg/mL; in data set [17], 0.00518 µg/mL; in data set [18] it was 0.0216 µg/mL. Moreover, the Cures in [15] is 0. Further, the “Log Cell Kill” value in data set [15] stood at 0.58. In data set [15], the “Maximum Body Weight loss” value came out at 16%. For the same compound, the “T − C (to reach 400% tumor volume increase)” value in [15] was 7.4 days. Further, the “Toxic Deaths” value in data set [15] is reported as 3.

Values taken from patent US6740335B1, “Liposomal camptothecin formulations” (priority 1997, dated 2004).
